Reference: patent US20060154954A1, “Combinations and use of selected pharmaceutically active compounds” (ALTANA PHARMA AG, priority 2003, published 2006)

Test system: gastric lesion
Assay: Gastric lesions after pylorus ligation and oral acetylsalicylic acid in the rat (Shay rat, modified by Okabe)
Type: in vivo
Details: 4 hours after pylorus ligation and oral 100 mg/kg acetylsalicylic acid
[1] = 1.0 μmol/kg intraduodenally, read-out: Reduction of lesion index versus control in %

Compound | inhibition in vivo at 1 µmol/kg [1] [%] | other results
COCCO[C@@H]1c2ccn3c(Cl)c(C)nc3c2N[C@H](c2ccccc2)[C@H]1O [Example 16, (7R,8R,9R)-3-chloro-8-hydroxy-7-(2-methoxyethoxy)-2-methyl-9-phenyl-7.8.9.10-tetrahydroimidazo[1.2-h][1.7]naphthyridine] | – | Reduction of lesion index versus control in % (6.0 μmol/kg intraduodenally): 100%
CCO[C@H]1c2ccn3c(C)c(C)nc3c2N[C@H](c2ccccc2)[C@H]1O [Example 5, (7S, 8R, 9R)-2,3-dimethyl-7-ethoxy-8-hydroxy-9-phenyl-7,8,9,10-tetrahydroimidazo[1,2-h][1,7]naphthyridine] | 100 | –
COCCO[C@@H]1c2ccn3c(C)c(C)nc3c2N[C@H](c2ccccc2)[C@H]1OC(=O)OC [Example 9, (7R,8R,9R)-8-methoxycarbonyloxy-7-(2-methoxyethoxy)-2,3-dimethyl-9-phenyl-7,8,9,10-tetrahydroimidazo[1,2-h][1,7]naphthyridine] | 100 | –
COCCO[C@@H]1c2ccn3c(C)c(C)nc3c2N[C@H](c2ccccc2)[C@H]1O [Example 6, (7R, 8R, 9R)-2,3-dimethyl-8-hydroxy-7-(2-methoxyethoxy)-9-phenyl-7,8,9,10-tetrahydroimidazo[1,2-h][1,7]naphthyridine] | 100 | –
COCCO[C@@H]1c2ccn3c(C)c(C)nc3c2O[C@H](c2ccccc2)[C@@H]1O [Example 13, (7R,8R,9R)-2,3-dimethyl-8-hydroxy-7-(2-methoxyethoxy)-9-phenyl-7H-8,9-dihydropyrano[2,3-c]imidazo[1,2-a]pyridine] | – | Reduction of lesion index versus control in % (1.0 μmol/kg intraduodenally): 100%
COCCO[C@@H]1c2ccn3c(C)c(C)nc3c2N[C@H](c2ccccc2)[C@H]1OC(=O)CN(C)C [Example 10, (7R,8R,9R)-7-(2-methoxyethoxy)-2,3-dimethyl-8-(N,N-dimethylaminomethylcarbonyloxy)-9-phenyl-7,8,9,10-tetrahydroimidazo[1,2-h][1,7]naphthyridine] | 100 | –
CO[C@H]1c2ccn3c(C)c(C)nc3c2N[C@H](c2ccccc2)[C@H]1O [Example 3, (7S, 8R, 9R)-2,3-dimethyl-8-hydroxy-7-methoxy-9-phenyl-7,8,9,10-tetrahydroimidazo[1,2-h][1,7]naphthyridine] | – | inhibition in vivo at 10 µmol/kg (10.0 μmol/kg intraduodenally, read-out: Reduction of lesion index versus control in %): 100%
Cc1nc2c3c(ccn2c1C)[C@@](C)(O)[C@H](O)[C@@H](c1ccccc1)N3 [Example 12, (7R,8R,9R)-2,3,7-trimethyl-7,8-dihydroxy-9-phenyl-7,8,9,10-tetrahydroimidazo[1,2-h][1,7]naphthyridine] | 100 | –
CO[C@@H]1c2ccn3c(C)c(C)nc3c2N[C@H](c2ccccc2)[C@H]1O [Example 2, (7R, 8R, 9R)-2,3-dimethyl-8-hydroxy-7-methoxy-9-phenyl-7,8,9,10-tetrahydroimidazo[1,2-h][1,7]naphthyridine] | 100 | –
Cc1nc2c3c(ccn2c1C)[C@@H](O)[C@@](C)(O)[C@@H](c1ccccc1)N3 [Example 11, (7R,8S,9R)-2,3,8-trimethyl-7,8-dihydroxy-9-phenyl-7,8,9,10-tetrahydroimidazo[1,2-h][1,7]naphthyridine] | 100 | –
COCCO[C@@H]1c2ccn3c(C)c(C)nc3c2N[C@H](c2ccccc2)[C@H]1O [Example 1, (7R,8R,9R)-8-hydroxy-7-(2-methoxyethoxy)-2,3-dimethyl-9-phenyl-7,8,9,10-tetrahydro-imi-dazo[1,2-h][1,7]naphthyridine] | – | Reduction of lesion index versus control in % (3.0 μmol/kg intraduodenally): 100%
COCCO[C@@H]1c2ccn3c(C)c(C)nc3c2N[C@H](c2ccccc2)[C@H]1OC(C)=O [Example 7, (7R,8R,9R)-8-acetoxy-7-(2-methoxyethoxy)-2,3-dimethyl-9-phenyl-7,8,9,10-tetrahydroimidazo[1,2-h][1,7]naphthyridine] | 100 | –
CCO[C@@H]1c2ccn3c(C)c(C)nc3c2O[C@H](c2ccccc2)[C@@H]1O [Example 14, (7R,8R,9R)-2,3-dimethyl-8-hydroxy-7-ethoxy-9-phenyl-7H-8,9-dihydropyrano[2,3-c]imidazo[1,2-a]pyridine] | – | Reduction of lesion index versus control in % (1.0 μmol/kg intraduodenally): 100%
COCCO[C@@H]1c2ccn3cc(C)nc3c2N[C@H](c2ccccc2)[C@H]1O [Example 15, (7R,8R,9R)-8-hydroxy-2-methyl-7-(2-methoxyethoxy)-9-phenyl-7,8,9,10-tetrahydroimidazo[1,2-h][1,7]naphthyridine] | – | inhibition in vivo at 6 µmol/kg (6.0 μmol/kg intraduodenally, read-out: Reduction of lesion index versus control in %): 100%
COCCO[C@@H]1c2ccn3c(C)c(C)nc3c2N[C@H](c2ccccc2)[C@H]1OC(=O)c1ccccc1 [Example 8, (7R,8R,9R)-8-benzoyloxy-7-(2-methoxyethoxy)-2,3-dimethyl-9-phenyl-7,8,9,10-tetrahydroimidazo[1,2-h][1,7]naphthyridine] | 100 | –
CCO[C@@H]1c2ccn3c(C)c(C)nc3c2N[C@H](c2ccccc2)[C@H]1O [Example 4, (7R, 8R, 9R)-2,3-dimethyl-7-ethoxy-8-hydroxy-9-phenyl-7,8,9,10-tetrahydroimidazo[1,2-h][1,7]naphthyridine] | 100 | –
COCCO[C@@H]1c2ccn3c(Cl)c(C)nc3c2O[C@H](c2ccccc2)[C@@H]1O [Example 17, (7R,8R,9R)-3-chloro-8-hydroxy-7-(2-methoxyethoxy)-2-methyl-9-phenyl-7H-8,9-dihydro-pyrano[2,3-c]imidazo[1,2-a]pyridine] | – | Reduction of lesion index versus control in % (1.0 μmol/kg intraduodenally): 100%
